# Measurements taken from paper PMC7180572, “5-Alkylamino-N-phenylpyrazine-2-carboxamides: Design, Preparation, and Antimycobacterial Evaluation” (Molecules, 2020).
# Where “and” joins values, the source holds several entries; their conditions need not be identical. Equal values may be shown once. Read-outs that look alike come from different tables or passages of the source.
# Key:
# [1] = tested on: Mycobacterium tuberculosis H37Ra ITM-M006710 (ATCC 9431); assay: Microdilution broth, modified Microplate Alamar Blue Assay, whole cell growth inhibition; type: cell-based; conditions: Mycobacterium tuberculosis, read-out: MIC Mtb H37Ra
# [2] = tested on: Mycobacterium aurum DSM 43999 (ATCC 23366); assay: as above; type: cell-based; conditions: Mycolicibacterium aurum, read-out: MIC Mycobacterium aurum
# [3] = tested on: Mycobacterium smegmatis DSM 43465 (ATCC 607); assay: as above; type: cell-based; conditions: Mycolicibacterium smegmatis, read-out: MIC Mycobacterium smegmatis
# [4] = tested on: HepG2 cells; assay: HepG2 cytotoxicity, CellTiter 96 (MTS) assay; type: cell-based, human; conditions: for IC50: Homo sapiens, HepG2, 24 h, read-out: HepG2 IC50; for SI, selectivity index: IC50 (HepG2)/MIC against Mtb H37Ra (in µM)
# [5] = tested on: Staphylococcus aureus spp.aureus ATCC 29213, CCM 4223; assay: Antibacterial microdilution broth method (EUCAST); type: cell-based; conditions: read-out: MIC SA
# [6] = tested on: Staphylococcus aureus methicillin resistant ATCC 43300, CCM 4750; assay: microbe, parasite or virus in culture; type: cell-based; conditions: ATCC 43300 / CCM 4750 / MRSA, read-out: MIC MRSA
# [7] = tested on: Staphylococcus epidermidis ATCC 12228, CCM 4418; assay: Antibacterial microdilution broth method (EUCAST); type: cell-based; conditions: read-out: MIC SE
# [8] = tested on: Enterococcus faecalis ATCC 29212, CCM 4224; assay: Antibacterial microdilution broth method (EUCAST); type: cell-based; conditions: read-out: MIC EF
# [9] = tested on: Escherichia coli ATCC 25922, CCM 3954; assay: Antibacterial microdilution broth method (EUCAST); type: cell-based; conditions: read-out: MIC EC
# [10] = tested on: Acinetobacter baumanii ATCC 19606, DSM 30007; assay: Antibacterial microdilution broth method (EUCAST); type: cell-based; conditions: Acinetobacter baumannii
# [11] = tested on: Pseudomonas aeruginosa ATCC 27853, CCM 3955; assay: Antibacterial microdilution broth method (EUCAST); type: cell-based; conditions: read-out: MIC PA
# [12] = tested on: Candida albicans ATCC 24433, CCM 8320; assay: Antifungal microdilution broth method (EUCAST); type: cell-based; conditions: read-out: MIC CA
# [13] = tested on: Candida krusei ATCC 6258, CCM 8271; assay: Antifungal microdilution broth method (EUCAST); type: cell-based; conditions: Pichia kudriavzevii, read-out: MIC CK
# [14] = tested on: Candida parapsilosis ATCC 22019, CCM 8260; assay: Antifungal microdilution broth method (EUCAST); type: cell-based; conditions: Lodderomyces parapsilosis, read-out: MIC CP
# [15] = tested on: Candida tropicalis ATCC 750, CCM 8264; assay: Antifungal microdilution broth method (EUCAST); type: cell-based; conditions: read-out: MIC CT
# [16] = tested on: Aspergillus fumigatus ATCC 204305; assay: Antifungal microdilution broth method (EUCAST); type: cell-based; conditions: read-out: MIC AF
# [17] = tested on: Aspergillus flavus CCM 8363; assay: Antifungal microdilution broth method (EUCAST); type: cell-based; conditions: read-out: MIC AFla
# [18] = tested on: Absidia corymbifera CCM 8077 (Lichtheimia corymbifera); assay: Antifungal microdilution broth method (EUCAST); type: cell-based; conditions: read-out: MIC AC
# [19] = tested on: Trichophyton interdigitale ATCC 9533, CCM 8377; assay: Antifungal microdilution broth method (EUCAST); type: cell-based; conditions: read-out: MIC TI
# [20] = tested on: Klebsiella pneumoniae ATCC 10031, CCM 4415; assay: Antibacterial microdilution broth method (EUCAST)
# [21] = in vitro, Middlebrook 7H9 broth, resazurin
SMILES,"MIC [1, 21] [µg/mL]",MIC [2] [µg/mL],MIC [3] [µg/mL],IC50 [4] [µM],MIC ([5]; 24 h) [µM],MIC ([5]; 48 h) [µM],MIC ([6]; 24 h) [µM],MIC ([6]; 48 h) [µM],MIC ([7]; 24 h) [µM],MIC ([7]; 48 h) [µM],MIC ([8]; 24 h) [µM],MIC ([8]; 48 h) [µM],MIC ([9]; 24 h) [µM],MIC ([9]; 48 h) [µM],MIC ([10]; 24h) [µM],MIC ([10]; 48h) [µM],MIC ([11]; 72 h) [µM],MIC ([11]; 120 h) [µM],MIC ([12]; 24 h) [µM],MIC ([12]; 48 h) [µM],other results
"CCCCCCCCNc1cnc(C(=O)Nc2ccc(C)cc2)cn1 [Compound 4f, 5-(octylamino)-N-(p-tolyl)pyrazine-2-carboxamide]",≥ 250,≥ 250,≥ 250,> 25,> 125,> 125,> 125,> 125,> 125,> 125,> 125,> 125,> 125,> 125,> 125,> 125,> 125,> 125,> 125,> 125,"MIC ([13]; 24 h): > 125 µM; MIC ([13]; 48 h): > 125 µM; MIC ([14]; 24 h): > 125 µM; MIC ([14]; 48 h): > 125 µM; MIC ([15]; 24 h): > 125 µM; MIC ([15]; 48 h): > 125 µM; MIC ([16]; ATCC204305, 24 h): > 125 µM; MIC ([16]; ATCC204305, 48 h): > 125 µM; MIC ([17]; CCM8363, 24 h): > 125 µM; MIC ([17]; CCM8363, 48 h): > 125 µM; MIC ([18]; CCM8077, 24 h): > 125 µM; MIC ([18]; CCM8077, 48 h): > 125 µM; MIC ([19]; 72 h): > 125 µM; MIC ([19]; 120 h): > 125 µM; melting point: 155 to 156 °C; MIC KP ([20]; 24h): > 125 µM; MIC KP ([20]; 48h): > 125 µM"
"CCCNc1cnc(C(=O)Nc2ccc(CC)cc2)cn1 [Compound 5a, N-(4-ethylphenyl)-5-(propylamino)pyrazine-2-carboxamide]",7.81,≥ 500,7.81,495,> 125,> 125,> 125,> 125,> 125,> 125,> 125,> 125,> 125,> 125,> 125,> 125,> 125,> 125,> 125,> 125,"MIC ([1]; MIC converted to µM): 27.5 µM; SI, selectivity index [4]: 18 and 18.01; MIC ([13]; 24 h): > 125 µM; MIC ([13]; 48 h): > 125 µM; MIC ([14]; 24 h): > 125 µM; MIC ([14]; 48 h): > 125 µM; MIC ([15]; 24 h): > 125 µM; MIC ([15]; 48 h): > 125 µM; MIC ([16]; ATCC204305, 24 h): > 125 µM; MIC ([16]; ATCC204305, 48 h): > 125 µM; MIC ([17]; CCM8363, 24 h): > 125 µM; MIC ([17]; CCM8363, 48 h): > 125 µM; MIC ([18]; CCM8077, 24 h): > 125 µM; MIC ([18]; CCM8077, 48 h): > 125 µM; MIC ([19]; 72 h): > 125 µM; MIC ([19]; 120 h): > 125 µM; melting point: 141.8 to 142.8 °C; MIC KP ([20]; 24h): > 125 µM; MIC KP ([20]; 48h): > 125 µM"
"CCCCCNc1cnc(C(=O)Nc2ccc(C)cc2)cn1 [Compound 4c, 5-(Pentylamino)-N-(p-tolyl)pyrazine-2-carboxamide]",≥ 500,≥ 500,≥ 500,> 25,> 500,> 500,> 500,> 500,> 500,> 500,> 500,> 500,> 500,> 500,> 500,> 500,> 500,> 500,> 125,> 125,"MIC ([13]; 24 h): > 125 µM; MIC ([13]; 48 h): > 125 µM; MIC ([14]; 24 h): > 125 µM; MIC ([14]; 48 h): > 125 µM; MIC ([15]; 24 h): > 125 µM; MIC ([15]; 48 h): > 125 µM; MIC ([16]; ATCC204305, 24 h): > 125 µM; MIC ([16]; ATCC204305, 48 h): > 125 µM; MIC ([17]; CCM8363, 24 h): > 125 µM; MIC ([17]; CCM8363, 48 h): > 125 µM; MIC ([18]; CCM8077, 24 h): > 125 µM; MIC ([18]; CCM8077, 48 h): > 125 µM; MIC ([19]; 72 h): > 125 µM; MIC ([19]; 120 h): > 125 µM; melting point: 155.9 to 156.6 °C; MIC KP ([20]; 24h): > 500 µM; MIC KP ([20]; 48h): > 500 µM"
"CCCCCCCNc1cnc(C(=O)Nc2ccc(CC)cc2)cn1 [Compound 5e, N-(4-ethylphenyl)-5-(heptylamino)pyrazine-2-carboxamide]",≥ 500,≥ 500,≥ 500,> 25,> 500,> 500,> 500,> 500,> 500,> 500,> 500,> 500,> 500,> 500,> 500,> 500,> 500,> 500,> 125,> 125,"MIC ([13]; 24 h): > 125 µM; MIC ([13]; 48 h): > 125 µM; MIC ([14]; 24 h): > 125 µM; MIC ([14]; 48 h): > 125 µM; MIC ([15]; 24 h): > 125 µM; MIC ([15]; 48 h): > 125 µM; MIC ([16]; ATCC204305, 24 h): > 125 µM; MIC ([16]; ATCC204305, 48 h): > 125 µM; MIC ([17]; CCM8363, 24 h): > 125 µM; MIC ([17]; CCM8363, 48 h): > 125 µM; MIC ([18]; CCM8077, 24 h): > 125 µM; MIC ([18]; CCM8077, 48 h): > 125 µM; MIC ([19]; 72 h): > 125 µM; MIC ([19]; 120 h): > 125 µM; melting point: 131 to 132 °C; MIC KP ([20]; 24h): > 500 µM; MIC KP ([20]; 48h): > 500 µM"
CCCCCCCNc1cnc(C(=O)Nc2ccc(O)cc2)cn1 [Compound 3e],3.91,≥ 500,31.2,44.8,> 500,> 500,> 500,> 500,> 500,> 500,> 500,> 500,> 500,> 500,> 500,> 500,> 500,> 500,> 250,> 250,"SI, selectivity index [4]: 3.76; MIC ([13]; 24 h): > 250 µM; MIC ([13]; 48 h): > 250 µM; MIC ([14]; 24 h): > 250 µM; MIC ([14]; 48 h): > 250 µM; MIC ([15]; 24 h): > 250 µM; MIC ([15]; 48 h): > 250 µM; MIC ([16]; ATCC204305, 24 h): > 250 µM; MIC ([16]; ATCC204305, 48 h): > 250 µM; MIC ([17]; CCM8363, 24 h): > 250 µM; MIC ([17]; CCM8363, 48 h): > 250 µM; MIC ([18]; CCM8077, 24 h): > 250 µM; MIC ([18]; CCM8077, 48 h): > 250 µM; MIC ([19]; 72 h): > 250 µM; MIC ([19]; 120 h): > 250 µM; melting point: 151.4 to 155.4 °C; MIC KP ([20]; 24h): > 500 µM; MIC KP ([20]; 48h): > 500 µM"
"CCCCCCCCNc1cnc(C(=O)Nc2cccc(O)c2)cn1 [Compound 2f, N-(3-hydroxyphenyl)-5-(octylamino)pyrazine-2-carboxamide]",≥ 500,≥ 500,250,> 50,> 125,> 125,> 125,> 125,> 125,> 125,> 125,> 125,> 125,> 125,> 125,> 125,> 125,> 125,> 125,> 125,"MIC ([13]; 24 h): > 125 µM; MIC ([13]; 48 h): > 125 µM; MIC ([14]; 24 h): > 125 µM; MIC ([14]; 48 h): > 125 µM; MIC ([15]; 24 h): > 125 µM; MIC ([15]; 48 h): > 125 µM; MIC ([16]; ATCC204305, 24 h): > 125 µM; MIC ([16]; ATCC204305, 48 h): > 125 µM; MIC ([17]; CCM8363, 24 h): > 125 µM; MIC ([17]; CCM8363, 48 h): > 125 µM; MIC ([18]; CCM8077, 24 h): > 125 µM; MIC ([18]; CCM8077, 48 h): > 125 µM; MIC ([19]; 72 h): > 125 µM; MIC ([19]; 120 h): > 125 µM; melting point: 223 to 225.9 °C; MIC KP ([20]; 24h): > 125 µM; MIC KP ([20]; 48h): > 125 µM"
